Assay results as given in patent US20080027006A1 (priority 2004, published 2008).
Values after ≈ are worked out from the molar mass of the structure shown.

How the values were obtained:
[1] = pH 7
physchem = settings: pH 7
[2] = format: physicochemical; settings: pH 7

SMILES	[θ]222, Benign [2]	further results
CC[C@H](C)[C@H](NC(=O)[C@H](CCC(N)=O)NC(=O)[C@H](CO)NC(=O)[C@@H](NC(=O)[C@H](C)NC(=O)[C@H](CCCCN)NC(=O)[C@H](CC(N)=O)NC(=O)[C@H](Cc1ccccc1)NC(=O)[C@H](CCC(N)=O)NC(=O)[C@H](CC(N)=O)NC(=O)[C@H](C)NC(=O)[C@@H](NC(=O)[C@H](CCC(N)=O)NC(=O)[C@H](CCCCN)NC(=O)[C@H](CCC(N)=O)NC(=O)[C@H](CC(N)=O)NC(=O)[C@H](CCC(=O)O)NC(=O)[C@H](Cc1ccc(O)cc1)NC(=O)[C@H](CC(C)C)NC(=O)[C@@H](NC(=O)[C@H](CC(N)=O)NC(=O)[C@H](CCC(N)=O)NC(=O)[C@@H](NC(=O)[C@@H](NC(=O)CNC(=O)[C@@H](NC(=O)CNC(=O)[C@H](CC(N)=O)NC(=O)[C@H](Cc1ccccc1)NC(=O)[C@H](CCCNC(=N)N)NC(=O)[C@H](Cc1ccc(O)cc1)NC(=O)[C@H](C)NC(=O)[C@H](CCSC)NC(=O)[C@H](CCC(N)=O)NC(=O)[C@H](CCSC)NC(C)=O)[C@@H](C)CC)C(C)C)[C@@H](C)O)C(C)C)[C@@H](C)CC)[C@@H](C)CC)C(N)=O [HR-N5]	−4,300 degrees · cm^2 · dmol^−1	solubility (in words) [1]: largely insoluble; solubility (physchem): 15 µM (≈ 61.5 µg/mL); No. Helical Residues, 50% TFE [2]: 24; [θ]222, 50% TFE [2]: −24,200 degrees · cm^2 · dmol^−1
CC[C@H](C)[C@H](NC(=O)CNC(=O)[C@H](CC(N)=O)NC(=O)[C@H](Cc1ccccc1)NC(C)=O)C(=O)NCC(=O)N[C@H](C(=O)N[C@H](C(=O)N[C@@H](CCC(N)=O)C(=O)N[C@@H](CC(N)=O)C(=O)N[C@H](C(=O)N[C@@H](CC(C)C)C(=O)N[C@@H](Cc1ccc(O)cc1)C(=O)N[C@@H](CCC(=O)O)C(=O)N[C@@H](CC(N)=O)C(=O)N[C@@H](CCC(N)=O)C(=O)N[C@@H](CCCCN)C(=O)N[C@@H](CCC(N)=O)C(=O)N[C@H](C(=O)N[C@@H](C)C(=O)N[C@@H](CC(N)=O)C(=O)N[C@@H](CCC(N)=O)C(=O)N[C@@H](Cc1ccccc1)C(=O)N[C@@H](CC(N)=O)C(=O)N[C@@H](CCCCN)C(=O)N[C@@H](C)C(=O)N[C@H](C(=O)N[C@@H](CO)C(=O)N[C@@H](CCC(N)=O)C(=O)N[C@H](C(=O)N[C@@H](CCC(N)=O)C(=O)N[C@@H](CCC(=O)O)C(=O)N[C@@H](CO)C(=O)N[C@@H](CC(C)C)C(=O)N[C@H](C(=O)N[C@H](C(N)=O)[C@@H](C)O)[C@@H](C)O)[C@@H](C)CC)[C@@H](C)CC)[C@@H](C)CC)C(C)C)[C@@H](C)O)C(C)C [HR-N6]	−3,300 degrees · cm^2 · dmol^−1	
CC[C@H](C)[C@H](NC(=O)[C@H](C)NC(=O)[C@H](CCCCN)NC(=O)[C@H](CC(N)=O)NC(=O)[C@H](Cc1ccccc1)NC(=O)[C@H](CCC(N)=O)NC(=O)[C@H](CC(N)=O)NC(=O)[C@H](C)NC(=O)[C@@H](NC(=O)[C@H](CCC(N)=O)NC(=O)[C@H](CCCCN)NC(=O)[C@H](CCC(N)=O)NC(=O)[C@H](CC(N)=O)NC(=O)[C@H](CCC(=O)O)NC(=O)[C@H](Cc1ccc(O)cc1)NC(=O)[C@H](CC(C)C)NC(=O)[C@@H](NC(=O)[C@H](CC(N)=O)NC(=O)[C@H](CCC(N)=O)NC(C)=O)C(C)C)[C@@H](C)CC)C(=O)N[C@@H](CO)C(=O)N[C@@H](CCC(N)=O)C(=O)N[C@H](C(=O)N[C@@H](CCC(N)=O)C(=O)N[C@@H](CCC(=O)O)C(=O)N[C@@H](CO)C(=O)N[C@@H](CC(C)C)C(=O)N[C@H](C(=O)N[C@H](C(=O)N[C@H](C(=O)N[C@@H](CO)C(=O)N[C@H](C(=O)N[C@@H](C)C(=O)N[C@@H](CC(C)C)C(=O)NCC(=O)N[C@@H](CCCCN)C(N)=O)[C@@H](C)O)[C@@H](C)O)[C@@H](C)O)[C@@H](C)O)[C@@H](C)CC [HR-N7]	−2,800 degrees · cm^2 · dmol^−1	
CC[C@H](C)[C@H](NC(=O)[C@H](C)NC(=O)[C@H](CCCCN)NC(=O)[C@H](CC(N)=O)NC(=O)[C@H](Cc1ccccc1)NC(=O)[C@H](CCC(N)=O)NC(=O)[C@H](CC(N)=O)NC(=O)[C@H](C)NC(=O)[C@@H](NC(=O)[C@H](CCC(N)=O)NC(=O)[C@H](CCCCN)NC(=O)[C@H](CCC(N)=O)NC(C)=O)[C@@H](C)CC)C(=O)N[C@@H](CO)C(=O)N[C@@H](CCC(N)=O)C(=O)N[C@H](C(=O)N[C@@H](CCC(N)=O)C(=O)N[C@@H](CCC(=O)O)C(=O)N[C@@H](CO)C(=O)N[C@@H](CC(C)C)C(=O)N[C@H](C(=O)N[C@H](C(=O)N[C@H](C(=O)N[C@@H](CO)C(=O)N[C@H](C(=O)N[C@@H](C)C(=O)N[C@@H](CC(C)C)C(=O)NCC(=O)N[C@@H](CCCCN)C(=O)N[C@@H](CC(C)C)C(=O)N[C@@H](CCC(N)=O)C(=O)N[C@@H](CC(=O)O)C(=O)N[C@H](C(=O)N[C@H](C(=O)N[C@@H](CC(N)=O)C(=O)N[C@@H](CCC(N)=O)C(N)=O)C(C)C)C(C)C)[C@@H](C)O)[C@@H](C)O)[C@@H](C)O)[C@@H](C)O)[C@@H](C)CC [HR-N8]	−2,500 degrees · cm^2 · dmol^−1	
CC[C@H](C)[C@H](NC(=O)[C@H](C)NC(=O)[C@H](CCCCN)NC(=O)[C@H](CC(N)=O)NC(=O)[C@H](Cc1ccccc1)NC(C)=O)C(=O)N[C@@H](CO)C(=O)N[C@@H](CCC(N)=O)C(=O)N[C@H](C(=O)N[C@@H](CCC(N)=O)C(=O)N[C@@H](CCC(=O)O)C(=O)N[C@@H](CO)C(=O)N[C@@H](CC(C)C)C(=O)N[C@H](C(=O)N[C@H](C(=O)N[C@H](C(=O)N[C@@H](CO)C(=O)N[C@H](C(=O)N[C@@H](C)C(=O)N[C@@H](CC(C)C)C(=O)NCC(=O)N[C@@H](CCCCN)C(=O)N[C@@H](CC(C)C)C(=O)N[C@@H](CCC(N)=O)C(=O)N[C@@H](CC(=O)O)C(=O)N[C@H](C(=O)N[C@H](C(=O)N[C@@H](CC(N)=O)C(=O)N[C@@H](CCC(N)=O)C(=O)N[C@@H](CC(N)=O)C(=O)N[C@@H](C)C(=O)N[C@@H](CCC(N)=O)C(=O)N[C@@H](C)C(=O)N[C@@H](CC(C)C)C(=O)N[C@@H](CC(N)=O)C(=O)N[C@H](C(N)=O)[C@@H](C)O)C(C)C)C(C)C)[C@@H](C)O)[C@@H](C)O)[C@@H](C)O)[C@@H](C)O)[C@@H](C)CC [HR-N9]	−2,800 degrees · cm^2 · dmol^−1	
CC[C@H](C)[C@H](NC(C)=O)C(=O)N[C@@H](CCC(N)=O)C(=O)N[C@@H](CCC(=O)O)C(=O)N[C@@H](CO)C(=O)N[C@@H](CC(C)C)C(=O)N[C@H](C(=O)N[C@H](C(=O)N[C@H](C(=O)N[C@@H](CO)C(=O)N[C@H](C(=O)N[C@@H](C)C(=O)N[C@@H](CC(C)C)C(=O)NCC(=O)N[C@@H](CCCCN)C(=O)N[C@@H](CC(C)C)C(=O)N[C@@H](CCC(N)=O)C(=O)N[C@@H](CC(=O)O)C(=O)N[C@H](C(=O)N[C@H](C(=O)N[C@@H](CC(N)=O)C(=O)N[C@@H](CCC(N)=O)C(=O)N[C@@H](CC(N)=O)C(=O)N[C@@H](C)C(=O)N[C@@H](CCC(N)=O)C(=O)N[C@@H](C)C(=O)N[C@@H](CC(C)C)C(=O)N[C@@H](CC(N)=O)C(=O)N[C@H](C(=O)N[C@@H](CC(C)C)C(=O)N[C@H](C(=O)N[C@@H](CCCCN)C(=O)N[C@@H](CCC(N)=O)C(=O)N[C@@H](CC(C)C)C(=O)N[C@@H](CO)C(=O)N[C@@H](CO)C(N)=O)C(C)C)[C@@H](C)O)C(C)C)C(C)C)[C@@H](C)O)[C@@H](C)O)[C@@H](C)O)[C@@H](C)O [HR-N10]	−3,600 degrees · cm^2 · dmol^−1	
CC[C@H](C)[C@H](NC(=O)[C@H](C)NC(=O)CNC(=O)[C@H](Cc1ccccc1)NC(=O)[C@H](CC(N)=O)NC(=O)[C@H](CO)NC(=O)[C@H](CO)NC(=O)[C@H](CC(C)C)NC(=O)[C@H](CCC(N)=O)NC(=O)[C@H](CCCCN)NC(=O)[C@@H](NC(=O)[C@H](CC(C)C)NC(=O)[C@@H](NC(=O)[C@H](CC(N)=O)NC(=O)[C@H](CC(C)C)NC(=O)[C@H](C)NC(=O)[C@H](CCC(N)=O)NC(=O)[C@H](C)NC(=O)[C@H](CC(N)=O)NC(=O)[C@H](CCC(N)=O)NC(=O)[C@H](CC(N)=O)NC(=O)[C@@H](NC(=O)[C@@H](NC(=O)[C@H](CC(=O)O)NC(=O)[C@H](CCC(N)=O)NC(=O)[C@H](CC(C)C)NC(=O)[C@H](CCCCN)NC(=O)CNC(=O)[C@H](CC(C)C)NC(=O)[C@H](C)NC(=O)[C@@H](NC(=O)[C@H](CO)NC(=O)[C@@H](NC(C)=O)[C@@H](C)O)[C@@H](C)O)C(C)C)C(C)C)[C@@H](C)O)C(C)C)C(=O)N[C@@H](CO)C(=O)N[C@@H](CO)C(N)=O [HR-N11]	−3,200 degrees · cm^2 · dmol^−1	
